Data published in ChEMBL document CHEMBL6092145, “Recent advances in the design of small molecular drugs with acrylamides covalent warheads” (Bioorg Med Chem, 2024).

Columns and labels:
[1] = molecular target: Tyrosine-protein kinase Lck (Homo sapiens, UniProt P06239)
Description: Inhibition of LCK (unknown origin) using TK as substrate incubated for 30 mins by HTRF assay

[2] = molecular target: Tyrosine-protein kinase Lyn (Homo sapiens, UniProt P07948)
Description: Inhibition of LYN (unknown origin)

NCI-H358 [3] = experiment: cells; format: functional, cell-based; conditions: Homo sapiens
Description: Antiproliferative activity against human NCI-H358 cells assessed as reduction in cell viability

[4] = molecular target: Tyrosine-protein kinase BTK (Homo sapiens, UniProt Q06187)
Sequence of Tyrosine-protein kinase BTK (Q06187 whole entry): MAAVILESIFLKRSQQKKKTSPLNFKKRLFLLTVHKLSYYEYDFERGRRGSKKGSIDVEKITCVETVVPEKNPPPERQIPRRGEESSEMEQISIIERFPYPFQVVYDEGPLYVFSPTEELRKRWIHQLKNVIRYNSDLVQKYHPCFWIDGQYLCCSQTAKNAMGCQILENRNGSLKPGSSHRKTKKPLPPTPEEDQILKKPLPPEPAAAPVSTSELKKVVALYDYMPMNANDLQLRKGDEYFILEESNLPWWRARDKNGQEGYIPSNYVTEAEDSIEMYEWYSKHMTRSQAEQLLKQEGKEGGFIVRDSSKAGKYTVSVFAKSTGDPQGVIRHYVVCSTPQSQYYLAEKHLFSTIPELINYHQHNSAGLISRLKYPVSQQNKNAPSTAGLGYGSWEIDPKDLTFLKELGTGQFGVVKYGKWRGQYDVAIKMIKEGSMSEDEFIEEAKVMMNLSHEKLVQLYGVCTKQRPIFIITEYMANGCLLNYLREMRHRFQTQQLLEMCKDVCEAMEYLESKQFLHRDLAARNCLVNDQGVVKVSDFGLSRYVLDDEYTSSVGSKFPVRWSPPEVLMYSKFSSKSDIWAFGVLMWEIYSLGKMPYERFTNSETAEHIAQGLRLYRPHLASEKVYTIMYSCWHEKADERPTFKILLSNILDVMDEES
Description: Inhibition of BTK (unknown origin)

[5] = molecular target: Tyrosine-protein kinase Blk (Homo sapiens, UniProt P51451)
Sequence of Tyrosine-protein kinase Blk (P51451 whole entry): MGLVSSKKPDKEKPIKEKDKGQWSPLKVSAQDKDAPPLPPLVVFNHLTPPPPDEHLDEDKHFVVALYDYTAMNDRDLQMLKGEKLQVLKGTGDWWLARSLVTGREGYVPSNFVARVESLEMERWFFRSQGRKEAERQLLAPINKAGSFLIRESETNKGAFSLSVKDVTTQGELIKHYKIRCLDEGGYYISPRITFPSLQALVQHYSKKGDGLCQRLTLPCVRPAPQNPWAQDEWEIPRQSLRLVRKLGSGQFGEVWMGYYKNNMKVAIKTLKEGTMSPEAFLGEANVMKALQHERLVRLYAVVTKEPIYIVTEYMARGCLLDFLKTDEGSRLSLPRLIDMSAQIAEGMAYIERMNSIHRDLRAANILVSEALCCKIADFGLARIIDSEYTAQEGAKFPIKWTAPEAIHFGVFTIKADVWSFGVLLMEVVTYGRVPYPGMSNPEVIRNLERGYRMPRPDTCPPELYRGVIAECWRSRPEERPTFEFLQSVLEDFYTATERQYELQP
Description: Inhibition of BLK (unknown origin)

NCI-H358 [6] = experiment: cells; format: functional, cell-based; conditions: Homo sapiens, NCI-H358, 72 h
Description: Antiproliferative activity against human NCI-H358 cells assessed as reduction in cell growth incubated for 72 hrs by cell-titer glo assay

clinical = conditions: human, in vivo, po
Description: Oral bioavailability in human

[7] = molecular target: Epidermal growth factor receptor (Homo sapiens, UniProt P00533)
Sequence of Epidermal growth factor receptor (P00533 whole entry): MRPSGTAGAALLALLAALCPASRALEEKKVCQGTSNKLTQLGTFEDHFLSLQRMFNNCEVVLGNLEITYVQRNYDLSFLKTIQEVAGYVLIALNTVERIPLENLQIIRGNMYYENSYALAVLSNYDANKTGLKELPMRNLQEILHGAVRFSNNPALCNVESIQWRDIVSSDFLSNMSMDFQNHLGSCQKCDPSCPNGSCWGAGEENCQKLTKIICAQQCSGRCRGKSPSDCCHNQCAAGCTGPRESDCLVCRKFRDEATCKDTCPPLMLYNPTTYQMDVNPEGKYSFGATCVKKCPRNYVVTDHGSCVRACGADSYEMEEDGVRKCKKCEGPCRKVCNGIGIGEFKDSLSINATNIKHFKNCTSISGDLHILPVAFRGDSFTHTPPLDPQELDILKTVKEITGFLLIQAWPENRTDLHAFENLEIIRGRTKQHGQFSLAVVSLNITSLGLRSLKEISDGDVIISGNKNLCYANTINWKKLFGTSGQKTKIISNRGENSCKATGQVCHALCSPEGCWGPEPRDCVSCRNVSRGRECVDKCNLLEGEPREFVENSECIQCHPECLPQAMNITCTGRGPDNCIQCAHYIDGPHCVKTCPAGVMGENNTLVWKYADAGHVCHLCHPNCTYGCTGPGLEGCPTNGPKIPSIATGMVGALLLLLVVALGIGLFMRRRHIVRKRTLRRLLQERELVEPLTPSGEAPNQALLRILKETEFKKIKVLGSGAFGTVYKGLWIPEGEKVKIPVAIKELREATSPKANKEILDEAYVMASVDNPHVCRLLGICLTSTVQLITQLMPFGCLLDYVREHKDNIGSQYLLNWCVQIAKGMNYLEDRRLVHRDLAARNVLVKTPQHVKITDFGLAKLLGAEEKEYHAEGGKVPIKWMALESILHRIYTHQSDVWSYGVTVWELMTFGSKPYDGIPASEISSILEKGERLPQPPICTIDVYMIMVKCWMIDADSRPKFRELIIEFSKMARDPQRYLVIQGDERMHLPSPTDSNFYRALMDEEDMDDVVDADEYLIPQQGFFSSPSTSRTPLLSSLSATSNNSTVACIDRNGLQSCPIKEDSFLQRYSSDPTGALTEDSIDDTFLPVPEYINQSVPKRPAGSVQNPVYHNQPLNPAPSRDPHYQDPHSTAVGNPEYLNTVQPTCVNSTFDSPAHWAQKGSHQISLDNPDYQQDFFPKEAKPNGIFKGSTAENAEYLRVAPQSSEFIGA

Sequence of Tyrosine-protein kinase Lyn (P07948 whole entry): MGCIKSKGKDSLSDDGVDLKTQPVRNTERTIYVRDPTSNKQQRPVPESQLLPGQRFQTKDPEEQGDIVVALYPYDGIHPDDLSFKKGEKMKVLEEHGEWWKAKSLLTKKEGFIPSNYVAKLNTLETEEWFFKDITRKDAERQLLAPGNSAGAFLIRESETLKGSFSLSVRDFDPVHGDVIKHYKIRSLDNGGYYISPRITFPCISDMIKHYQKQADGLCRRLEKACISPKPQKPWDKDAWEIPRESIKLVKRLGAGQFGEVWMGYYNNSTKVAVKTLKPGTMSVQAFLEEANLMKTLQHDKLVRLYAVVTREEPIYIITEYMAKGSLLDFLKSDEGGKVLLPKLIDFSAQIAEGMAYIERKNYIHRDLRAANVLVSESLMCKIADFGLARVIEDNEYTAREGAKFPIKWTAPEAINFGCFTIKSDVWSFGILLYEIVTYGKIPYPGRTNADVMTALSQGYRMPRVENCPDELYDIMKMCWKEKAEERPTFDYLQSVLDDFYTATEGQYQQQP
Sequence of Tyrosine-protein kinase Lck (P06239 whole entry): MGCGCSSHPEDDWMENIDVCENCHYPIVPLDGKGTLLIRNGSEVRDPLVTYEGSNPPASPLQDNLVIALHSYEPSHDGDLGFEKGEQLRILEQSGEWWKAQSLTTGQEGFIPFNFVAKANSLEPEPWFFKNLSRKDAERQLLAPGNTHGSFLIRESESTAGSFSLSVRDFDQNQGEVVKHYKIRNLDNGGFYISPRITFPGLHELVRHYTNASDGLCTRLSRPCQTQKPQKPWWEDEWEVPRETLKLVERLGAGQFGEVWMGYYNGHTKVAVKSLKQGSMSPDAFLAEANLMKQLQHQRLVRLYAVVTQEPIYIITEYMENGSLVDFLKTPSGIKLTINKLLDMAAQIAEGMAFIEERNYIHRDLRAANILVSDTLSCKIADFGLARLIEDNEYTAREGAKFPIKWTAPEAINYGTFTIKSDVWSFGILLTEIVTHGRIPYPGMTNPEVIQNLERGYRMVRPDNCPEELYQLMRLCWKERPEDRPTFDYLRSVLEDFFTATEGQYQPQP

Nc1ncnc2c1c(-c1ccc(Oc3ccccc3)cc1)nn2C1CCCC1
IC50 [1]: 4.6 nM
IC50 [2]: 2.5 nM

C=CC(=O)N1CCN(c2ncnc3c(F)c(-c4c(O)cccc4F)c(Cl)cc23)CC1
IC50 (NCI-H358 [3]): 939 nM

C=CC(=O)NC1Cn2c(c(-c3ccc(Oc4ccccc4)cc3)c3c(N)ncnc32)C1=C (centres undefined)
IC50 [4]: 0.4 nM
IC50 [5]: 0.5 nM

C=CC(=O)N1CCN(C(=O)CNc2cc(Cl)c(Cl)cc2OC)CC1
IC50 [5]: > 1000 nM

C=CC(=O)N1CC(N2CCN(C(=O)CNc3cc(C4(C)CC4)c(Cl)cc3O)CC2)C1
IC50 (NCI-H358 [3]): 250 nM

C=CC(=O)N1CCN(c2nc(OC[C@@H]3CCCN3C)nc3c2CCN(c2cccc4cccc(Cl)c24)C3)C[C@@H]1CC#N
IC50 (NCI-H358 [6]): 1 nM
bioavailability (clinical): 16.9%

C=C(F)C(=O)N1CCN(c2nc(OC[C@@H]3CCCN3CCCOCCC(=O)N[C@H](C(=O)N3C[C@H](O)C[C@H]3C(=O)NCc3ccc(-c4scnc4C)cc3)C(C)(C)C)nc3c2CCN(c2cccc4cccc(Cl)c24)C3)C[C@@H]1CC#N
IC50 (NCI-H358 [6]): 520 nM

CN(C)CCSSCCNC(=O)C1CCN(C(=O)CSc2ccc(Cl)cc2)CC1
IC50 [5]: > 10000 nM

CN(C)CCSSCCC(=O)Nc1cc(-c2cccs2)[nH]n1
IC50 [5]: > 10000 nM

CN(C)CCSSCCC(=O)NC1CCN(C(=O)COc2ccc(Cl)cc2Cl)CC1
IC50 [7]: > 10000 nM

C=CC(=O)N1CCN(c2nc(=O)n(-c3c(C)ccnc3C(C)C)c3nc(-c4c(O)cccc4F)c(F)cc23)[C@@H](C)C1 [SOTORASIB]
IC50 (NCI-H358 [3]): 68 nM
